Patent publication US20110264026A1, “Azo Derivatives and Uses Thereof in Phototherapy” (priority 2008, published 2011)

Assays:
Absorption maximum = type: physicochemical
[1] = test system: human myeloid leukemia U937 cell line; assay: Cell viability of tumor cells exposed to photosensitizer and electromagnetic radiation; type: cell-based; conditions: for viability at 13 µM: 13 μM compound; for viability at 25 µM: 25 μM compound; for viability at 6 µM: 6 μM compound
Protocol: A general procedure is carried out for measuring cell viability upon exposure of tumor cells to the fused ring diaza compound of Formula (FX33) and electromagnetic radiation. The compound of Formula (FX33) has an absorption maxima (λmax) of 334 nm. The cell viability measurements are carried out using human myeloid leukemia U937 cell line by the standard WST-1 assay. In this procedure, U397 Leukemia cells (0.5×10^6) are plated in standard T-25 cell culture flasks, and are exposed to four controls and a series of test conditions corresponding to a range of fused ring diaza compound concentrations, summarized in Table 1.
The compound of formula (FX33) is dissolved in 20 to 30% DMSO at an initial concentration of 2-4 mM and serially diluted to the final desired value such that the amount of DMSO exposed to the cells is below 0.5%. The cells are incubated at 37° C. with various concentrations of the fused ring diaza compound photosensitizer for about 30 minutes prior to exposure to electromagnetic radiation. […] It should be noted that in the present study, the electromagnetic radiation source is not optimized with respect to power and wavelength. The viability of cells is assessed after 24 hours following exposure to electromagnetic radiation. The electromagnetic radiation source is a B-100SP High Intensity Lamp from UVP. Once exposure is complete, cells are processed to determine percent viability using Hank's Balanced Salt Solution (HBSS), Trypan blue stain, and a hemacytometer to count live and dead cells. The number of viable cells is determined and percent viability is determined using:
FIG. 4 provides cell viability results for test conditions wherein cells are exposed to electromagnetic radiation and the compound of formula (FX33) for concentrations of 6 μM, 13 μM and 25 μM. […] Cells are incubated in the absence of the compound of formula (FX33) (0 μM) and with the compound of formula (FX33) at concentrations of 6 μM, 13 μM and 25 μM. The cells are exposed to electromagnetic radiation from a B-100SP High Intensity Lamp for 0, 5, 10, and 20 minutes. […] In the presence of 13 μM of the diaza compound of formula (FX33), cells have about 94% viability with electromagnetic radiation exposure for 5 minutes, about 95% viability with electromagnetic radiation exposure for 10 minutes, and about 58% viability with electromagnetic radiation exposure for 20 minutes. In the presence of 25 μM of the compound of formula (FX33), cells have about 86% viability with electromagnetic radiation exposure for 5 minutes, about 30% viability with electromagnetic radiation exposure for 10 minutes, and about 8% viability with electromagnetic radiation exposure for 20 minutes.

[2] = Homo sapiens, U-937, 5 min, electromagnetic radiation exposure 5 minutes
[3] = Homo sapiens, U-937, 10 min, electromagnetic radiation exposure 10 minutes
[4] = Homo sapiens, U-937, 20 min, electromagnetic radiation exposure 20 minutes

COc1cc2c3c(cc(=O)oc3c1OC)NN=C2 [formula (FX33)]
absorption maxima (λmax) (Absorption maximum): 334 nm | effect on cell viability (in words) ([1]; 6, 13 and 25 μM, exposure 0, 5, 10 and 20 minutes): concentration-dependent and electromagnetic radiation exposure time-dependent decreases in cell viability | viability at 13 µM [1, 2]: ~94% | viability at 25 µM [1, 2]: ~86% | viability at 6 µM [1, 3]: 100% | viability at 13 µM [1, 3]: ~95% | viability at 25 µM [1, 3]: ~30% | viability at 6 µM [1, 4]: ~92% | viability at 13 µM [1, 4]: ~58% | viability at 25 µM [1, 4]: ~8% | IC50 ([1]; Homo sapiens, U-937, 20 min, cells exposed to electromagnetic radiation and photosensitizer for 20 minutes, read-out: VC50/20 (concentration at which 50% decrease in cell viability is observed)): 5.25 µM | viability at 6 µM ([1]; Homo sapiens, U-937, electromagnetic radiation exposure 5 minutes (B-100SP lamp, 325-425 nm), viability assessed after 24 hours): 100%
